Data: ChEMBL document CHEMBL1201861, “Genomics of Drug Sensitity in Cancer screening data, Wellcome Trust Sanger Institute”
pIC50: −log10 of the molar value.

Columns and labels:
23132-87 = assay: cells; type: functional, cell-based, Homo sapiens; conditions: Homo sapiens
Description: SANGER: Inhibition of human 23132-87 cell growth in a cell viability assay.

COR-L279 = assay: SANGER: Inhibition of human COR-L279 cell growth in a cell viability assay.; type: functional, cell-based
HT55 = assay: cells; type: functional, cell-based, Homo sapiens; conditions: Homo sapiens, HT55;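 further: cell viability readout measuring growth inhibition of human HT55 cells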
Description: SANGER: Inhibition of human HT55 cell growth in a cell viability assay.

TE-15 = assay: cells; type: functional, cell-based; conditions: Homo sapiens;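 further: cell viability readout of growth inhibition in TE-15 cells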
Description: SANGER: Inhibition of human TE-15 cell growth in a cell viability assay.

HCT-15 = assay: cells; type: functional, cell-based, Homo sapiens; conditions: Homo sapiens, HCT-15;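 further: cell viability readout, IC50 reflecting suppression of HCT-15 cell growth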
Description: SANGER: Inhibition of human HCT-15 cell growth in a cell viability assay.

NCI-H345 = assay: cells; type: functional, cell-based; conditions: Homo sapiens;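 further: growth inhibition of NCI-H345 cells measured with a cell viability assay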
Description: SANGER: Inhibition of human NCI-H345 cell growth in a cell viability assay.

TE-441-T = assay: cells; type: functional, cell-based; conditions: Homo sapiens
Description: SANGER: Inhibition of human TE-441-T cell growth in a cell viability assay.

SU-DHL-1 = assay: SANGER: Inhibition of human SU-DHL-1 cell growth in a cell viability assay.; type: functional, cell-based
NCI-H2009 = assay: cells; type: functional, cell-based, Homo sapiens; conditions: Homo sapiens, NCI-H2009;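 further: cell viability assay measuring inhibition of NCI-H2009 cell growth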
Description: SANGER: Inhibition of human NCI-H2009 cell growth in a cell viability assay.

JIYOYE = assay: cells; type: functional, cell-based; conditions: Homo sapiens
Description: SANGER: Inhibition of human JiyoyeP-2003 cell growth in a cell viability assay.

NCCIT = assay: SANGER: Inhibition of human NCCIT cell growth in a cell viability assay.; type: functional, cell-based
UACC-812 = assay: cells; type: functional, cell-based; conditions: Homo sapiens
Description: SANGER: Inhibition of human UACC-812 cell growth in a cell viability assay.

THP-1 = assay: cells; type: functional, cell-based; conditions: Homo sapiens;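 further: growth inhibition of THP-1 cells, read out via a cell viability assay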
Description: SANGER: Inhibition of human THP-1 cell growth in a cell viability assay.

NCI-H1436 = assay: cells; type: functional, cell-based; conditions: Homo sapiens;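 further: growth suppression of human NCI-H1436 cells, determined with a cell viability readout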
Description: SANGER: Inhibition of human NCI-H1436 cell growth in a cell viability assay.

CESS = assay: SANGER: Inhibition of human CESS cell growth in a cell viability assay.; type: functional, cell-based
SCLC-21H = assay: cells; type: functional, cell-based; conditions: Homo sapiens;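 further: growth inhibition of cultured human SCLC-21H cells, read out with a cell viability assay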
Description: SANGER: Inhibition of human SCLC-21H cell growth in a cell viability assay.

SCC-3 = assay: cells; type: functional, cell-based; conditions: Homo sapiens;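 further: cell viability assay measuring inhibition of SCC-3 cell growth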
Description: SANGER: Inhibition of human SCC-3 cell growth in a cell viability assay.

NCI-H64 = assay: cells; type: functional, cell-based; conditions: Homo sapiens;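 further: growth inhibition of NCI-H64 cells, read out with a cell viability assay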
Description: SANGER: Inhibition of human NCI-H64 cell growth in a cell viability assay.

NCI-H524 = assay: cells; type: functional, cell-based; conditions: Homo sapiens;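 further: growth inhibition of human NCI-H524 cells, read out through a cell viability assay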
Description: SANGER: Inhibition of human NCI-H524 cell growth in a cell viability assay.

MONO-MAC-6 = assay: cells; type: functional, cell-based; conditions: Homo sapiens;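 further: cell viability assay measuring growth inhibition of human MONO-MAC-6 cells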
Description: SANGER: Inhibition of human MONO-MAC-6 cell growth in a cell viability assay.

HSC-4 = assay: cells; type: functional, cell-based, Homo sapiens; conditions: Homo sapiens, HSC-4;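 further: growth inhibition of human HSC-4 cells, read out with a cell viability assay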
Description: SANGER: Inhibition of human HSC-4 cell growth in a cell viability assay.

RL = assay: cells; type: functional, cell-based; conditions: Homo sapiens
Description: SANGER: Inhibition of human RL cell growth in a cell viability assay.

LOUCY = assay: cells; type: functional, cell-based; conditions: Homo sapiens;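 further: growth inhibition of human LOUCY cells, read out with a cell viability assay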
Description: SANGER: Inhibition of human LOUCY cell growth in a cell viability assay.

EB2 = assay: cells; type: functional, cell-based; conditions: Homo sapiens;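 further: growth inhibition of EB2 cells, read out with a cell viability assay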
Description: SANGER: Inhibition of human EB2 cell growth in a cell viability assay.

CMK = assay: cells; type: functional, cell-based; conditions: Homo sapiens;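 further: growth inhibition of CMK cells, read out as cell viability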
Description: SANGER: Inhibition of human CMK cell growth in a cell viability assay.

IM-9 = assay: SANGER: Inhibition of human IM-9 cell growth in a cell viability assay.; type: functional, cell-based
NCI-H322M = assay: cells; type: functional, cell-based; conditions: Homo sapiens;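 further: cell viability assay measuring inhibition of growth of human NCI-H322M cells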
Description: SANGER: Inhibition of human NCI-H322M cell growth in a cell viability assay.

MEL-JUSO = assay: cells; type: functional, cell-based, Homo sapiens; conditions: Homo sapiens, MEL-JUSO;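 further: growth inhibition of human MEL-JUSO cells, read out with a cell viability assay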
Description: SANGER: Inhibition of human MEL-JUSO cell growth in a cell viability assay.

NCI-H1703 = assay: cells; type: functional, cell-based, Homo sapiens; conditions: Homo sapiens, NCI-H1703;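 further: growth inhibition of NCI-H1703 cells, read out via a cell viability assay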
Description: SANGER: Inhibition of human NCI-H1703 cell growth in a cell viability assay.

TALL-1 = assay: cells; type: functional, cell-based; conditions: Homo sapiens;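 further: growth inhibition of cultured human TALL-1 cells, read out by a cell viability assay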
Description: SANGER: Inhibition of human TALL-1 cell growth in a cell viability assay.

SIG-M5 = assay: cells; type: functional, cell-based; conditions: Homo sapiens;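 further: cell viability assay read-out, measuring how strongly growth of cultured human SIG-M5 cells is inhibited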
Description: SANGER: Inhibition of human SIG-M5 cell growth in a cell viability assay.

SNU-C1 = assay: cells; type: functional, cell-based; conditions: Homo sapiens;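 further: growth inhibition of SNU-C1 human cells, read out by a cell viability assay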
Description: SANGER: Inhibition of human SNU-C1 cell growth in a cell viability assay.

NCI-H2227 = assay: cells; type: functional, cell-based; conditions: Homo sapiens;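 further: growth inhibition of the human cell line, read out with a cell viability assay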
Description: SANGER: Inhibition of human NCI-H2227 cell growth in a cell viability assay.

DG-75 = assay: cells; type: functional, cell-based; conditions: Homo sapiens;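 further: growth inhibition of DG-75 cells, read out with a cell viability assay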
Description: SANGER: Inhibition of human DG-75 cell growth in a cell viability assay.

BC-3 = assay: cells; type: functional, cell-based; conditions: Homo sapiens;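 further: cell viability assay measuring growth inhibition of human BC-3 cells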
Description: SANGER: Inhibition of human BC-3 cell growth in a cell viability assay.

NCI-H1573 = assay: cells; type: functional, cell-based; conditions: Homo sapiens;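 further: growth inhibition of NCI-H1573 cells, read out with a cell viability assay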
Description: SANGER: Inhibition of human NCI-H1573 cell growth in a cell viability assay.

U-698-M = assay: cells; type: functional, cell-based; conditions: Homo sapiens
Description: SANGER: Inhibition of human U-698-M cell growth in a cell viability assay.

CA46 = assay: cells; type: functional, cell-based; conditions: Homo sapiens;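 further: growth inhibition of human CA46 cells, read out by a cell viability assay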
Description: SANGER: Inhibition of human CA46 cell growth in a cell viability assay.

CAL-148 = assay: cells; type: functional, cell-based; conditions: Homo sapiens
Description: SANGER: Inhibition of human CAL-148 cell growth in a cell viability assay.

ARH-77 = assay: cells; type: functional, cell-based; conditions: Homo sapiens;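 further: growth inhibition of ARH-77 cells, read out by a cell viability assay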
Description: SANGER: Inhibition of human ARH-77 cell growth in a cell viability assay.

IST-SL2 = assay: cells; type: functional, cell-based; conditions: Homo sapiens;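 further: growth inhibition of human IST-SL2 cells, read out by a cell viability assay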
Description: SANGER: Inhibition of human IST-SL2 cell growth in a cell viability assay.

RPMI-6666 = assay: cells; type: functional, cell-based; conditions: Homo sapiens
Description: SANGER: Inhibition of human RPMI-6666 cell growth in a cell viability assay.

SNU-16 = assay: cells; type: functional, cell-based; conditions: Homo sapiens;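 further: growth inhibition of human SNU-16 cells, determined with a cell viability readout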
Description: SANGER: Inhibition of human NCI-SNU-16 cell growth in a cell viability assay.

MHH-CALL-2 = assay: cells; type: functional, cell-based; conditions: Homo sapiens;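 further: growth inhibition of the cell line, read out in a cell viability assay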
Description: SANGER: Inhibition of human MHH-CALL-2 cell growth in a cell viability assay.

SJRH30 = assay: cells; type: functional, cell-based; conditions: Homo sapiens;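 further: growth inhibition of human SJRH30 cells, read out with a cell viability assay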
Description: SANGER: Inhibition of human SJRH30 cell growth in a cell viability assay.

LC4-1 = assay: cells; type: functional, cell-based; conditions: Homo sapiens;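 further: growth inhibition of LC4-1 cells, read out with a cell viability assay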
Description: SANGER: Inhibition of human LC4-1 cell growth in a cell viability assay.

RL95-2 = assay: cells; type: functional, cell-based; conditions: Homo sapiens;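 further: RL95-2 growth inhibition determined through a cell viability readout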
Description: SANGER: Inhibition of human RL95-2 cell growth in a cell viability assay.

Kasumi 1 = assay: cells; type: functional, cell-based; conditions: Homo sapiens;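 further: growth inhibition of human Kasumi-1 cells, read out by a cell viability assay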
Description: SANGER: Inhibition of human KASUMI-1 cell growth in a cell viability assay.

Cc1ccc(Nc2nccc(N(C)c3ccc4c(C)n(C)nc4c3)n2)cc1S(N)(=O)=O [PAZOPANIB]
pIC50 (23132-87): < 5.10 | pIC50 (COR-L279): < 5.10 | pIC50 (HT55): 6.01 | pIC50 (TE-15): 5.14 | pIC50 (HCT-15): < 5.10 | pIC50 (NCI-H345): < 5.10 | pIC50 (TE-441-T): < 5.10 | pIC50 (SU-DHL-1): < 5.10 | pIC50 (NCI-H2009): < 5.10 | pIC50 (JIYOYE): < 5.10 | pIC50 (NCCIT): < 5.10 | pIC50 (UACC-812): < 5.10 | pIC50 (THP-1): < 5.10 | pIC50 (NCI-H1436): < 5.10 | pIC50 (CESS): < 5.10 | pIC50 (SCLC-21H): < 5.10 | pIC50 (SCC-3): < 5.10 | pIC50 (NCI-H64): < 5.10 | pIC50 (NCI-H524): < 5.10 | pIC50 (MONO-MAC-6): < 5.10 | pIC50 (HSC-4): < 5.10 | pIC50 (RL): < 5.10 | pIC50 (LOUCY): < 5.10 | pIC50 (EB2): 5.48 | pIC50 (CMK): < 5.10 | pIC50 (IM-9): < 5.10 | pIC50 (NCI-H322M): < 5.10 | pIC50 (MEL-JUSO): < 5.10 | pIC50 (NCI-H1703): < 5.10 | pIC50 (TALL-1): < 5.10 | pIC50 (SIG-M5): < 5.10 | pIC50 (SNU-C1): < 5.10 | pIC50 (NCI-H2227): < 5.10 | pIC50 (DG-75): < 5.10 | pIC50 (BC-3): < 5.10 | pIC50 (NCI-H1573): 5.22 | pIC50 (U-698-M): < 5.10 | pIC50 (CA46): < 5.10 | pIC50 (CAL-148): < 5.10 | pIC50 (ARH-77): < 5.10 | pIC50 (IST-SL2): < 5.10 | pIC50 (RPMI-6666): < 5.10 | pIC50 (SNU-16): < 5.10 | pIC50 (MHH-CALL-2): < 5.10 | pIC50 (SJRH30): < 5.10 | pIC50 (LC4-1): < 5.10

CO[C@H]1C[C@@H]2CC[C@@H](C)[C@@](O)(O2)C(=O)C(=O)N2CCCC[C@H]2C(=O)O[C@H]([C@H](C)C[C@@H]2CC[C@@H](O)[C@H](OC)C2)CC(=O)[C@H](C)/C=C(\C)[C@@H](O)[C@@H](OC)C(=O)[C@H](C)C[C@H](C)/C=C/C=C/C=C/1C [SIROLIMUS]
pIC50 (COR-L279): 7.06 | pIC50 (TE-15): 8.87 | pIC50 (NCI-H345): < 7.00 | pIC50 (TE-441-T): < 7.00 | pIC50 (SU-DHL-1): < 7.00 | pIC50 (JIYOYE): 7.96 | pIC50 (NCCIT): < 7.00 | pIC50 (UACC-812): < 7.00 | pIC50 (RL95-2): 9.97 | pIC50 (THP-1): < 7.00 | pIC50 (NCI-H1436): < 7.00 | pIC50 (CESS): 7.88 | pIC50 (SCLC-21H): < 7.00 | pIC50 (SCC-3): < 7.00 | pIC50 (NCI-H64): < 7.00 | pIC50 (NCI-H524): < 7.00 | pIC50 (MONO-MAC-6): < 7.00 | pIC50 (RL): < 7.00 | pIC50 (LOUCY): < 7.00 | pIC50 (EB2): < 7.00 | pIC50 (CMK): 7.07 | pIC50 (IM-9): < 7.00 | pIC50 (NCI-H322M): < 7.00 | pIC50 (TALL-1): < 7.00 | pIC50 (SIG-M5): 7.76 | pIC50 (SNU-C1): < 7.00 | pIC50 (DG-75): < 7.00 | pIC50 (BC-3): 7.00 | pIC50 (U-698-M): < 7.00 | pIC50 (Kasumi 1): < 7.00 | pIC50 (CA46): < 7.00 | pIC50 (CAL-148): < 7.00 | pIC50 (ARH-77): 7.28 | pIC50 (IST-SL2): < 7.00 | pIC50 (RPMI-6666): 7.61 | pIC50 (SNU-16): < 7.00 | pIC50 (MHH-CALL-2): < 7.00 | pIC50 (LC4-1): 7.06

Cn1cncc1[C@@](N)(c1ccc(Cl)cc1)c1ccc2c(c1)c(-c1cccc(Cl)c1)cc(=O)n2C [TIPIFARNIB]
pIC50 (23132-87): 5.17 | pIC50 (COR-L279): 5.10 | pIC50 (HT55): < 4.80 | pIC50 (TE-15): 6.44 | pIC50 (HCT-15): 6.49 | pIC50 (NCI-H345): < 4.80 | pIC50 (TE-441-T): < 4.80 | pIC50 (SU-DHL-1): 5.14 | pIC50 (NCI-H2009): 6.44 | pIC50 (JIYOYE): 5.04 | pIC50 (NCCIT): 5.89 | pIC50 (UACC-812): < 4.80 | pIC50 (THP-1): < 4.80 | pIC50 (NCI-H1436): < 4.80 | pIC50 (CESS): 5.69 | pIC50 (SCLC-21H): < 4.80 | pIC50 (SCC-3): < 4.80 | pIC50 (NCI-H64): < 4.80 | pIC50 (NCI-H524): < 4.80 | pIC50 (MONO-MAC-6): 5.48 | pIC50 (HSC-4): < 4.80 | pIC50 (RL): < 4.80 | pIC50 (LOUCY): < 4.80 | pIC50 (EB2): 5.57 | pIC50 (CMK): 6.82 | pIC50 (IM-9): < 4.80 | pIC50 (NCI-H322M): < 4.80 | pIC50 (MEL-JUSO): 7.63 | pIC50 (NCI-H1703): < 4.80 | pIC50 (TALL-1): < 4.80 | pIC50 (SIG-M5): > 7.20 | pIC50 (SNU-C1): < 4.80 | pIC50 (NCI-H2227): < 4.80 | pIC50 (DG-75): < 4.80 | pIC50 (BC-3): 5.53 | pIC50 (NCI-H1573): 5.23 | pIC50 (U-698-M): 5.40 | pIC50 (CA46): 5.62 | pIC50 (CAL-148): 6.05 | pIC50 (ARH-77): < 4.80 | pIC50 (IST-SL2): 4.87 | pIC50 (RPMI-6666): > 7.20 | pIC50 (SNU-16): < 4.80 | pIC50 (MHH-CALL-2): 4.98 | pIC50 (SJRH30): 5.06 | pIC50 (LC4-1): 5.59

Cc1cc(Nc2cc(N3CCN(C)CC3)nc(Sc3ccc(NC(=O)C4CC4)cc3)n2)n[nH]1 [TOZASERTIB]
pIC50 (COR-L279): < 5.70 | pIC50 (TE-15): 6.07 | pIC50 (NCI-H345): < 5.70 | pIC50 (TE-441-T): < 5.70 | pIC50 (SU-DHL-1): < 5.70 | pIC50 (JIYOYE): < 5.70 | pIC50 (NCCIT): < 5.70 | pIC50 (RL95-2): 6.39 | pIC50 (THP-1): < 5.70 | pIC50 (NCI-H1436): < 5.70 | pIC50 (CESS): 6.50 | pIC50 (SCLC-21H): 5.71 | pIC50 (SCC-3): < 5.70 | pIC50 (NCI-H64): < 5.70 | pIC50 (NCI-H524): 6.29 | pIC50 (MONO-MAC-6): 7.10 | pIC50 (RL): < 5.70 | pIC50 (LOUCY): < 5.70 | pIC50 (EB2): < 5.70 | pIC50 (CMK): 5.85 | pIC50 (IM-9): < 5.70 | pIC50 (NCI-H322M): < 5.70 | pIC50 (TALL-1): < 5.70 | pIC50 (SIG-M5): 6.78 | pIC50 (SNU-C1): < 5.70 | pIC50 (DG-75): < 5.70 | pIC50 (BC-3): < 5.70 | pIC50 (U-698-M): < 5.70 | pIC50 (Kasumi 1): < 5.70 | pIC50 (CA46): < 5.70 | pIC50 (CAL-148): < 5.70 | pIC50 (ARH-77): < 5.70 | pIC50 (IST-SL2): 6.14 | pIC50 (RPMI-6666): < 5.70 | pIC50 (SNU-16): 6.20 | pIC50 (MHH-CALL-2): < 5.70 | pIC50 (LC4-1): < 5.70
